The term pIC50 denotes the IC50 on a negative log10 scale, so that one unit is a factor of ten.

A short description of one data set: Bioavailability. The class given is in vivo. The settings on record: orally administered.
The target of the next data set is Maltase. The experiment in a line: In vitro inhibition of intestinal maltase. The class given is biochemical. The settings on record: Table 1.
Another data set in a line: Metabolism. The settings on record: in vivo.
A short description of another data set: Cellular toxicity. The class given is cell-based. The settings on record: at doses envisioned during therapy.
The test system of another data set is MEB4 culture. The data set can be described thus: Pigmentation of MEB4 melanoma culture. The settings on record: inhibition of glycosphingolipid synthesis in MEB4 culture. The class given is cell-based, murine. An excerpt: Two melanoma cultures, one dark pigmented (An) and the other very lightly pigmented (M14) show a clearly higher content of glucosylceramide (GlcCer) in the darkly pigmented culture both in the total cell extract and in a melanosomal fraction.

The next data set deals with T1, A-Galactosidase (Homo sapiens, UniProt P06280).
T1 construct: measured with appropriate 4-MU substrates using purified enzymes from spleen; from tissue; host or cells: spleen
T1 sequence (P06280 32-429): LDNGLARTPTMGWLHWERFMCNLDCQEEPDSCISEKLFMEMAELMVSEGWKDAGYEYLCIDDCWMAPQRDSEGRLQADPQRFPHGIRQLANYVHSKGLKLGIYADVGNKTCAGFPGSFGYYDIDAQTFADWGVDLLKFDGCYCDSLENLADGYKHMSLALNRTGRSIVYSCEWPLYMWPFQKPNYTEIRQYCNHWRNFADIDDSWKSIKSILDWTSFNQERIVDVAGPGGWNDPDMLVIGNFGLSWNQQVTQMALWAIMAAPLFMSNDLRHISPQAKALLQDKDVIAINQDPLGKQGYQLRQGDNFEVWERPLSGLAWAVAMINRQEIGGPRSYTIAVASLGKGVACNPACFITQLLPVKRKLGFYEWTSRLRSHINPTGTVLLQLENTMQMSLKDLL
The experiment in a line: In vitro inhibition of lysosomal A-galactosidase (4-MU substrate, purified enzyme from spleen). The settings on record: Table 3, read-out: Apparent in vitro IC50 value, A-Galactosidase. The class given is biochemical.

The next data set deals with Hexosaminidase. The experiment in a line: In vitro inhibition of lysosomal hexosaminidase (4-MU substrate, purified enzyme from spleen). The class given is biochemical. The settings on record: Table 3, read-out: Apparent in vitro IC50 value, Hexosaminidase.
The next data set has as its target T2, b-Galactosidase (Homo sapiens, UniProt P16278).
T2 construct: measured with appropriate 4-MU substrates using purified enzymes from spleen; from tissue; host or cells: spleen
T2 sequence (P16278 29-677): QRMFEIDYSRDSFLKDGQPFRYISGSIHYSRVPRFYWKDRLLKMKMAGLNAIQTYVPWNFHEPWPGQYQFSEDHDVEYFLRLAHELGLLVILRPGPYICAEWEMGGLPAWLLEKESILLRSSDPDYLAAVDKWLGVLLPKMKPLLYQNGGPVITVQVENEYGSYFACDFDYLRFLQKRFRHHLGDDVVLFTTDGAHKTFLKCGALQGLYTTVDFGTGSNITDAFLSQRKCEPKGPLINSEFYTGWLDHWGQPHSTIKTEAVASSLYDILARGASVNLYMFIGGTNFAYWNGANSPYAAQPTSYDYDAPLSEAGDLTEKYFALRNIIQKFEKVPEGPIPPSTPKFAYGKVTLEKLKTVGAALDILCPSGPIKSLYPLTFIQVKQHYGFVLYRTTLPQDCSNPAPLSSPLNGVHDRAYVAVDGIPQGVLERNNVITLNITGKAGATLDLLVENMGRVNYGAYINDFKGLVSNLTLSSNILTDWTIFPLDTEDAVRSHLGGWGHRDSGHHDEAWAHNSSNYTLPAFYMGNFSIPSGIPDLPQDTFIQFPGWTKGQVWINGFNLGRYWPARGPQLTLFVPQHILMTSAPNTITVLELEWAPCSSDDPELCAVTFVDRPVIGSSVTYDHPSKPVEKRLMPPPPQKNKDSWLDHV
The experiment in a line: In vitro inhibition of lysosomal b-galactosidase (4-MU substrate, purified enzyme from spleen). It counts as biochemical. The settings on record: Table 3, read-out: Apparent in vitro IC50 value, A b-Galactosidase.

The next data set deals with human melanocytes. The experiment in a line: Pigmentation / melanin production in melanocytes. The class given is cell-based. The settings on record: melanocytes of lighter and darker skin type, within a single culture passage. From the text:
Iminosugars were designed that harbour optimal features for use in skin. Ceramide and glucosylceramide are important structural components of the stratum corneum and regulate water permeability of the skin. It is known that glucosylceramides together with other polar lipids are secreted into the extracellular space of the stratum corneum by lamellar bodies and are subsequently processed to ceramides. […] Iminosugars should therefore not interfere with the crucial generation of ceramide from glucosylceramide catalysed by lysosomal glucocerebrosidase.
The pharmaceutical application of the deoxynojirimycin analogues according to the invention and will be in post-inflammatory hyperpigmentation and skin inflammatory conditions. There is strong evidence that when administered systemically these deoxynojirimycin analogues have strong anti-inflammatory activity in vivo.

For data set [1], the system named is glycosphingolipid synthesis. The settings on record: 100 mg TID, Gaucher patients; cited from earlier work.
Data set [2] addresses T3, lysosomal alfa-glucosidase (Homo sapiens, UniProt P10253).
T3 construct: measured with appropriate 4-MU substrates using purified enzymes from spleen; from tissue; host or cells: spleen
The experiment in a line: In vitro inhibition of lysosomal alfa-glucosidase (4-MU substrate, purified enzyme from spleen). The class given is biochemical. The settings on record: Table 3, read-out: Apparent in vitro IC50 value, a-Glucosidase.

pIC50: −log10 of the molar value.

`OC[C@@H]1[C@@H](O)[C@H](O)[C@@H](O)CN1CCCCCOCC12CC3CC(CC(C3)C1)C2` [N-(5-adamantane-1-yl-methoxy-pentyl)deoxynojirimycin, reference compound]: the Bioavailability entry in the data set “Bioavailability” was “highly bioavailable”. The same compound had a negative-log IC50 (pIC50) against Maltase of less than 4.60. Also, the Metabolism entry in the data set “Metabolism” is “metabolically inert”. The Cellular toxicity entry in the data set “Cellular toxicity” is on record as “no intrinsic cellular toxicity”.

On to `OC[C@@H]1[C@H](O)[C@H](O)[C@H](O)CN1CCCCCOCC12CC3CC(CC(C3)C1)C2` [N-(adamantane-1-yl-methoxypentyl)-L-ido-deoxynojirimycin], for which the Bioavailability entry in “Bioavailability” was “well bioavailable”. In addition, the pIC50 against Maltase, at A-Galactosidase, on Hexosaminidase and on b-Galactosidase was less than 4.00 in each case. In the data set on MEB4 culture, the “Pigmentation of MEB4 culture” value was “loss of pigmentation”. In the data set “Cellular toxicity”, the Cellular toxicity entry was “no cellular toxicity”. Besides, the “Pigmentation / melanin production in melanocytes” value in the data set with human melanocytes was “reduce melanin production”; with human melanocytes (listed as ido-N-(5-adamantane-1-yl-methoxy-pentyl)deoxynojirimycin), “significant decrease in pigmentation”.

With `CCCCN1C[C@H](O)[C@@H](O)[C@H](O)[C@H]1CO` [N-butyl-deoxynojirimycin, reference compound], the “Inhibition of glycosphingolipid synthesis” value in [1] is reported as 20-30%. The pIC50 on Hexosaminidase was less than 4.00; at b-Galactosidase, less than 4.00; in data set [2], 6.10.

These data come from US7528153B2, “Deoxynojirimycin analogues and their uses as glucosylceramidase inhibitors” (Genzyme Corporation, priority 2003, dated 2009).
